# Where “and” joins values, the source holds several entries; their conditions need not be identical. Identical values can stand only once.
# Assays:
# Test in all cases: radiometric filter-binding kinase assay, Kinase HotSpot
# Conditions in all cases: compound 0.5 µM; ATP 10 µM
# EPHA4 (human) = EPHA4 (human) (UniProt P54764)
# PHKG2 (human) = PHKG2 (human) (UniProt P15735)
# CDK9 CCNT1 (human) = CDK9 CCNT1 (human) (UniProt P50750+O60563)
# ROCK2 (human) = ROCK2 (human) (UniProt O75116)
# LYN (human) = LYN (human) (UniProt P07948)
# CSK (human) = CSK (human) (UniProt P41240)
# PKN1 (human) = PKN1 (human) (UniProt Q16512)
# CDK1 CCNB1 (human) = CDK1 CCNB1 (human) (UniProt P06493+P14635)
# STK11 (human) = STK11 (human) (UniProt Q15831)
# IGF1R (human) = IGF1R (human) (UniProt P08069)
# TXK (human) = TXK (human) (UniProt P42681)
# MAP3K10 (human) = MAP3K10 (human) (UniProt Q02779)
# DYRK4 (human) = DYRK4 (human) (UniProt Q9NR20)
# STK39 (human) = STK39 (human) (UniProt Q9UEW8)
# CDK2 CCNE1 (human) = CDK2 CCNE1 (human) (UniProt P24941+P24864)
# PDPK1 (human) = PDPK1 (human) (UniProt O15530)
# PBK (human) = PBK (human) (UniProt Q96KB5)
# STK10 (human) = STK10 (human) (UniProt O94804)
# AKT2 (human) = AKT2 (human) (UniProt P31751)
# TGFBR1 (human) = TGFBR1 (human) (UniProt P36897)
# RPS6KA6 KD1 KD2 (human) = RPS6KA6 KD1 KD2 (human) (UniProt Q9UK32)
# DSTYK (human) = DSTYK (human) (UniProt Q6XUX3)
# MAP3K11 (human) = MAP3K11 (human) (UniProt Q16584)
# ZAP70 (human) = ZAP70 (human) (UniProt P43403)
# RPS6KA3 KD1 KD2 (human) = RPS6KA3 KD1 KD2 (human) (UniProt P51812)
# PRKCB1 (human) = PRKCB1 (human) (UniProt P05771)
# EPHA2 (human) = EPHA2 (human) (UniProt P29317)
# PAK2 (human) = PAK2 (human) (UniProt Q13177)
# STK3 (human) = STK3 (human) (UniProt Q13188)
# ABL1 (human) = ABL1 (human) (UniProt P00519)
# FYN (human) = FYN (human) (UniProt P06241)
# MAP4K5 (human) = MAP4K5 (human) (UniProt Q9Y4K4)
# MAPKAPK2 (human) = MAPKAPK2 (human) (UniProt P49137)
# WNK3 (human) = WNK3 (human) (UniProt Q9BYP7)
# LRRK2 (human) = LRRK2 (human) (UniProt Q5S007)
# GSG2 (human) = GSG2 (human) (UniProt Q8TF76)
# JAK2 JH1 JH2 (human) = JAK2 JH1 JH2 (human) (UniProt O60674)
# LIMK1 (human) = LIMK1 (human) (UniProt P53667)
# TAOK1 (human) = TAOK1 (human) (UniProt Q7L7X3)
# LCK (human) = LCK (human) (UniProt P06239)
# RAF1 (human) = RAF1 (human) (UniProt P04049)
# PRKCE (human) = PRKCE (human) (UniProt Q02156)
# Sequence of LYN (human) (P07948 whole entry, looked up): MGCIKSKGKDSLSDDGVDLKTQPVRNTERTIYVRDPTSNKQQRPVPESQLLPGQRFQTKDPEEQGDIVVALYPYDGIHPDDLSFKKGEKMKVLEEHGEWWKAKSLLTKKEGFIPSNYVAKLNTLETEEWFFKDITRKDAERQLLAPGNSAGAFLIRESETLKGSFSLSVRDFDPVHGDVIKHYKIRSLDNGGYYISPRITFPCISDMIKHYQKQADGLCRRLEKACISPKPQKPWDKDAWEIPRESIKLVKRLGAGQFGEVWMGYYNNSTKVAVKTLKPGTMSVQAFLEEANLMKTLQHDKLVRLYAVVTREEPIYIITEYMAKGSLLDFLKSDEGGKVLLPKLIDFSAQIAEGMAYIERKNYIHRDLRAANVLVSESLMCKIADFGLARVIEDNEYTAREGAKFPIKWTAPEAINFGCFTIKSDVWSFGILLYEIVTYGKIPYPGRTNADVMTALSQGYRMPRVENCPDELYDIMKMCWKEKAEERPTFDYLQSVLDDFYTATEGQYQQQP
# Sequence of DYRK4 (human) (Q9NR20 whole entry, looked up): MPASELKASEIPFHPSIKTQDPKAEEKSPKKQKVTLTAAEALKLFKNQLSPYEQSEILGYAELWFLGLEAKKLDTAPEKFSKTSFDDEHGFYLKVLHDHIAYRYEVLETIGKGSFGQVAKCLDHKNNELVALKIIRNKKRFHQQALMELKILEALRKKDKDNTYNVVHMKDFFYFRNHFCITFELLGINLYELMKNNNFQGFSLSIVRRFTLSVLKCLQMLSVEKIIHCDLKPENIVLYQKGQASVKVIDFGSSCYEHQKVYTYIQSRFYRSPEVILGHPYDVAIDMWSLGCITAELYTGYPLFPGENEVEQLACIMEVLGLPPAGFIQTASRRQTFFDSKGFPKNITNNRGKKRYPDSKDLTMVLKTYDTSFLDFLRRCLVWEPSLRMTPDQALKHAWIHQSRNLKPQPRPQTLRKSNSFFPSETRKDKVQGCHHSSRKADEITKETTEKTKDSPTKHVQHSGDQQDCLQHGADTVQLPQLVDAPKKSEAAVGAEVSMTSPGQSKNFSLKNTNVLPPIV
# Sequence of FYN (human) (P06241 whole entry, looked up): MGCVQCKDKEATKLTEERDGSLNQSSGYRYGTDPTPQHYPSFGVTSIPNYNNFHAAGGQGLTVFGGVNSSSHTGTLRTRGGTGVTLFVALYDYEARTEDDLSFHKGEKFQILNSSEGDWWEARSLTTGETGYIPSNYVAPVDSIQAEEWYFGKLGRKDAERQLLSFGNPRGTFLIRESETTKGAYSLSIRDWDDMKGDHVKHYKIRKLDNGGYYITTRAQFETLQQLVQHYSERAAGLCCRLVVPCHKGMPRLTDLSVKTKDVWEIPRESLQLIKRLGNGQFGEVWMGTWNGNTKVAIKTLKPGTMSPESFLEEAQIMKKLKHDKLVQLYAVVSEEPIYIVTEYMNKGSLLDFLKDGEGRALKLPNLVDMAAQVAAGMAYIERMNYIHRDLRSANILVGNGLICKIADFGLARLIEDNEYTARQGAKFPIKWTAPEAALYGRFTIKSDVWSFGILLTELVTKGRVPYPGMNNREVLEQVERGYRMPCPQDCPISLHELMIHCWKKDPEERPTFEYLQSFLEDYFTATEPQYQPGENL
# Sequence of CSK (human) (P41240 whole entry, looked up): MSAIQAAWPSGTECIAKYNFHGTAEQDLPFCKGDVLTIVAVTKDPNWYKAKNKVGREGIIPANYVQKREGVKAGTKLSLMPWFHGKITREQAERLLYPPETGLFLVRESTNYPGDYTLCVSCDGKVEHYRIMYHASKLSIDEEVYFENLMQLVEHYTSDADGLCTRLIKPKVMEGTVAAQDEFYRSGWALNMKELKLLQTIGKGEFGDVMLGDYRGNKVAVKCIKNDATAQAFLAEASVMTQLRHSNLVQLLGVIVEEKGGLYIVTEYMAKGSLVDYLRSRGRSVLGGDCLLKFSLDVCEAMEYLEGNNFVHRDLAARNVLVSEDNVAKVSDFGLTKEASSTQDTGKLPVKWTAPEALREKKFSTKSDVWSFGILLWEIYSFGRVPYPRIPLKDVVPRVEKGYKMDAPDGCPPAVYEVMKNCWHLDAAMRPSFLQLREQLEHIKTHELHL
# Sequence of TGFBR1 (human) (P36897 whole entry, looked up): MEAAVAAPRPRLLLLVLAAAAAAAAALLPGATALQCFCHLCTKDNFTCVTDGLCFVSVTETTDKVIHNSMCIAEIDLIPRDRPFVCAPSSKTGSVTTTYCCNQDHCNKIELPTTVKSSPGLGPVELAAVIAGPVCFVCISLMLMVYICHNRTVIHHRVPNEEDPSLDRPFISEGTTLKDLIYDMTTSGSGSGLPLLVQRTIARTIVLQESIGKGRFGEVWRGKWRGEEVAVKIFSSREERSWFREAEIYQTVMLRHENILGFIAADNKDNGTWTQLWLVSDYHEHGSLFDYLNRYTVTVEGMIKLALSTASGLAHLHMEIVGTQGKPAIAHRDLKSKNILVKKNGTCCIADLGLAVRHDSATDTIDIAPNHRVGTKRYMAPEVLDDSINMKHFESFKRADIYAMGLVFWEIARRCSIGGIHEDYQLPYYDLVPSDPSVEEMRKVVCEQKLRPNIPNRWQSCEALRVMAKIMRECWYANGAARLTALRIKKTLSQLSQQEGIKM
# Sequence of CDK1 CCNB1 (human) (P06493 whole entry, looked up): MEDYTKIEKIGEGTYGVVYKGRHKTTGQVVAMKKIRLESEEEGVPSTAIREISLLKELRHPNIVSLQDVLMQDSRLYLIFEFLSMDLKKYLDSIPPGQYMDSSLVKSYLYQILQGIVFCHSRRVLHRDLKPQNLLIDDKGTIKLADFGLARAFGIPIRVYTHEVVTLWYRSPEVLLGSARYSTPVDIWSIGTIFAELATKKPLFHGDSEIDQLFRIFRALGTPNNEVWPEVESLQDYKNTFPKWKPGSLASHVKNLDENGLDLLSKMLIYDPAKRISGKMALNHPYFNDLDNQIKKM
# Sequence of CDK1 CCNB1 (human) (P14635 whole entry, looked up): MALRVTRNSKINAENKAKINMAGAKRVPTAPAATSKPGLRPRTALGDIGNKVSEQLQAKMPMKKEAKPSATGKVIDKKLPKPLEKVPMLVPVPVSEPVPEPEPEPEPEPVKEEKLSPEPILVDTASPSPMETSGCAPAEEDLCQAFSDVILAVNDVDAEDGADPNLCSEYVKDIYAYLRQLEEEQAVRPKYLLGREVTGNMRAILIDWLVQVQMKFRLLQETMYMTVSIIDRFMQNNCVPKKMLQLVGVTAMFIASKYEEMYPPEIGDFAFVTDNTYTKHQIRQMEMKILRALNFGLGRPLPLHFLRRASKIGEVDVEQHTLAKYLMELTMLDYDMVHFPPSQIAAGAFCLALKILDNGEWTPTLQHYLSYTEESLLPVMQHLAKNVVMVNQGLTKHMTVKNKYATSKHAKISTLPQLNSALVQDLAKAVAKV
# Sequence of EPHA2 (human) (P29317 whole entry, looked up): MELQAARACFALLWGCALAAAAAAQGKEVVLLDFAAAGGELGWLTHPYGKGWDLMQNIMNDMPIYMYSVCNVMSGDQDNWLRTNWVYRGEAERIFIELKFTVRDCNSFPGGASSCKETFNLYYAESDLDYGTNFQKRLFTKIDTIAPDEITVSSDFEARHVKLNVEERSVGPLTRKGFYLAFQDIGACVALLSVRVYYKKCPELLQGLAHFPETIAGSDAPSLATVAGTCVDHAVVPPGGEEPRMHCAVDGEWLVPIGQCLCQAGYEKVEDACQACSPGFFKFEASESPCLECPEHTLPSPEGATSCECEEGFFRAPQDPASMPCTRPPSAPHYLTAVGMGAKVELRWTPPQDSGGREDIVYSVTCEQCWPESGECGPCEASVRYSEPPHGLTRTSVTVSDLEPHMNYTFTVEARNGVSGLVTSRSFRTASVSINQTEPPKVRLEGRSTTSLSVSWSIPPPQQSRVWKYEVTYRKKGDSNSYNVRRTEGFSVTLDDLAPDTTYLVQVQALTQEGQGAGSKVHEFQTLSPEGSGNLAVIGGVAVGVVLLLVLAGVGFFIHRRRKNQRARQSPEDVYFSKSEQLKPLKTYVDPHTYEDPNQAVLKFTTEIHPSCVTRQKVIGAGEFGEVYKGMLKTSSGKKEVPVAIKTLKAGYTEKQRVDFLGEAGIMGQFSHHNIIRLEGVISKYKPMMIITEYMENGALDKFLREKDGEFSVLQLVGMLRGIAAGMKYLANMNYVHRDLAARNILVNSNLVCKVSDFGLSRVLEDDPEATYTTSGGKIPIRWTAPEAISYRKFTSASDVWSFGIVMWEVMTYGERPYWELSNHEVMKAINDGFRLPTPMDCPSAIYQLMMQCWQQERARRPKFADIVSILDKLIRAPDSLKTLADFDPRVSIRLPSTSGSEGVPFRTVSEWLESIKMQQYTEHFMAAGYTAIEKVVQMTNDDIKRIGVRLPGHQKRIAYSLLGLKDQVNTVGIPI
# Sequence of PHKG2 (human) (P15735 whole entry, looked up): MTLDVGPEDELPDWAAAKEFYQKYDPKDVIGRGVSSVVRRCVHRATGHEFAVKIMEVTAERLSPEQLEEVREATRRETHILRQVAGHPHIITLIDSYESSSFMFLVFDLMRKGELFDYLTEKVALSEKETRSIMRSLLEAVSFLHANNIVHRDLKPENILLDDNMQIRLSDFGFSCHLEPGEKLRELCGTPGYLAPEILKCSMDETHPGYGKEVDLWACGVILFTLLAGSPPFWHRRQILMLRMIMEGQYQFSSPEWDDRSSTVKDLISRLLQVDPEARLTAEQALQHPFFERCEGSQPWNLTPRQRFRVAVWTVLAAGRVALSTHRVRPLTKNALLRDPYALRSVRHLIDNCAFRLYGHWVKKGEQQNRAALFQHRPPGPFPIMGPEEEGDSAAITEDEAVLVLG
# Sequence of PBK (human) (Q96KB5 whole entry, looked up): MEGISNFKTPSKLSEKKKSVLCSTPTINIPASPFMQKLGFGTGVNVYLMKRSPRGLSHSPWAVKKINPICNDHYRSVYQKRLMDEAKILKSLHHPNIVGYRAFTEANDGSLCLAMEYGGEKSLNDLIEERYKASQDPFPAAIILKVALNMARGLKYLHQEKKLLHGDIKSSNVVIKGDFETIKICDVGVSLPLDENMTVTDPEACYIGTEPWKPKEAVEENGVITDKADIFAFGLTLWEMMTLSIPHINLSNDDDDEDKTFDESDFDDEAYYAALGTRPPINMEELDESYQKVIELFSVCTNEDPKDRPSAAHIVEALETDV
smiles,measurement,setting,value
CCCCc1c(-c2ccc(OC)cc2)[nH]c2nccnc12,residual activity,EPHA4 (human),85.5%
same,residual activity,PHKG2 (human),106%
same,residual activity,CDK9 CCNT1 (human),55.2%
same,residual activity,ROCK2 (human),97.2%
same,residual activity,LYN (human),108% and 85.5%
same,residual activity,CSK (human),87%
same,residual activity,PKN1 (human),89.1%
same,residual activity,CDK1 CCNB1 (human),47.7%
same,residual activity,STK11 (human),74.5%
same,residual activity,IGF1R (human),83.9%
same,residual activity,TXK (human),72.7%
same,residual activity,MAP3K10 (human),82.7%
same,residual activity,DYRK4 (human),97.7%
same,residual activity,STK39 (human),77.8%
same,residual activity,CDK2 CCNE1 (human),42.1%
same,residual activity,PDPK1 (human),102%
same,residual activity,PBK (human),80.6%
same,residual activity,STK10 (human),95.4%
same,residual activity,AKT2 (human),93.8%
same,residual activity,TGFBR1 (human),95%
same,residual activity,RPS6KA6 KD1 KD2 (human),78.2%
same,residual activity,DSTYK (human),97.6%
same,residual activity,MAP3K11 (human),39.4%
same,residual activity,ZAP70 (human),74.2%
same,residual activity,RPS6KA3 KD1 KD2 (human),88%
same,residual activity,PRKCB1 (human),99.4%
same,residual activity,EPHA2 (human),87.9%
same,residual activity,PAK2 (human),97.5%
same,residual activity,STK3 (human),87%
same,residual activity,ABL1 (human),83.4%
same,residual activity,FYN (human),61.3%
same,residual activity,MAP4K5 (human),63.8%
same,residual activity,MAPKAPK2 (human),90.2%
same,residual activity,WNK3 (human),88.4%
same,residual activity,LRRK2 (human),83%
same,residual activity,GSG2 (human),80%
same,residual activity,JAK2 JH1 JH2 (human),77.9%
same,residual activity,LIMK1 (human),65.3%
same,residual activity,TAOK1 (human),87%
same,residual activity,LCK (human),85%
same,residual activity,RAF1 (human),99.9%
same,residual activity,PRKCE (human),102%
Ic1cccc(CSc2nnc(-c3ccncc3)o2)c1,residual activity,EPHA4 (human),105%
same,residual activity,PHKG2 (human),105%
same,residual activity,CDK9 CCNT1 (human),109%
same,residual activity,ROCK2 (human),89%
same,residual activity,LYN (human),103% and 99.6%
same,residual activity,CSK (human),101%
same,residual activity,PKN1 (human),98.6%
same,residual activity,CDK1 CCNB1 (human),92%
same,residual activity,STK11 (human),103%
same,residual activity,IGF1R (human),99.1%
same,residual activity,TXK (human),96.8%
same,residual activity,MAP3K10 (human),102%
same,residual activity,DYRK4 (human),98.5%
same,residual activity,STK39 (human),101%
same,residual activity,CDK2 CCNE1 (human),102%
same,residual activity,PDPK1 (human),98.3%
same,residual activity,PBK (human),62.7%
same,residual activity,STK10 (human),93.8%
same,residual activity,AKT2 (human),101%
same,residual activity,TGFBR1 (human),94.4%
same,residual activity,RPS6KA6 KD1 KD2 (human),103%
same,residual activity,DSTYK (human),94.8%
same,residual activity,MAP3K11 (human),99.6%
same,residual activity,ZAP70 (human),107%
same,residual activity,RPS6KA3 KD1 KD2 (human),96.4%
same,residual activity,PRKCB1 (human),97.5%
same,residual activity,EPHA2 (human),102%
same,residual activity,PAK2 (human),97.6%
same,residual activity,STK3 (human),110%
same,residual activity,ABL1 (human),107%
same,residual activity,FYN (human),102%
same,residual activity,MAP4K5 (human),99.5%
same,residual activity,MAPKAPK2 (human),93.5%
same,residual activity,WNK3 (human),101%
same,residual activity,LRRK2 (human),91.9%
same,residual activity,GSG2 (human),95.9%
same,residual activity,JAK2 JH1 JH2 (human),107%
same,residual activity,LIMK1 (human),85.8%
same,residual activity,TAOK1 (human),101%
same,residual activity,LCK (human),98.5%
same,residual activity,RAF1 (human),92.8%
same,residual activity,PRKCE (human),86.5%

# From the kinase profiling compilation of Christmann-Franck et al. (2016)
